Assay results: PubChem BioAssay AID2415 (Johns Hopkins Ion Channel Center, 2010)

Assays:
Test in all cases: KCNQ1-5 subtype selectivity of KCNQ2 potentiator, late-stage follow-up, selectivity assay for KCNQ2 potentiator project, cell-based, manual patch clamp, mode of action (AID 2415)
[1] = target: Potassium voltage-gated channel subfamily KQT member 2 (Rattus norvegicus) (UniProt O88943); conditions: KCNQ channels in transfected CHO cells, manual whole-cell patch clamp current; measured here: KCNQ2 current ratio; at 10 µM; stronger effect = higher value
Potassium voltage-gated channel subfamily KQT member 2 (Rattus norvegicus), sequence (O88943 whole entry, looked up): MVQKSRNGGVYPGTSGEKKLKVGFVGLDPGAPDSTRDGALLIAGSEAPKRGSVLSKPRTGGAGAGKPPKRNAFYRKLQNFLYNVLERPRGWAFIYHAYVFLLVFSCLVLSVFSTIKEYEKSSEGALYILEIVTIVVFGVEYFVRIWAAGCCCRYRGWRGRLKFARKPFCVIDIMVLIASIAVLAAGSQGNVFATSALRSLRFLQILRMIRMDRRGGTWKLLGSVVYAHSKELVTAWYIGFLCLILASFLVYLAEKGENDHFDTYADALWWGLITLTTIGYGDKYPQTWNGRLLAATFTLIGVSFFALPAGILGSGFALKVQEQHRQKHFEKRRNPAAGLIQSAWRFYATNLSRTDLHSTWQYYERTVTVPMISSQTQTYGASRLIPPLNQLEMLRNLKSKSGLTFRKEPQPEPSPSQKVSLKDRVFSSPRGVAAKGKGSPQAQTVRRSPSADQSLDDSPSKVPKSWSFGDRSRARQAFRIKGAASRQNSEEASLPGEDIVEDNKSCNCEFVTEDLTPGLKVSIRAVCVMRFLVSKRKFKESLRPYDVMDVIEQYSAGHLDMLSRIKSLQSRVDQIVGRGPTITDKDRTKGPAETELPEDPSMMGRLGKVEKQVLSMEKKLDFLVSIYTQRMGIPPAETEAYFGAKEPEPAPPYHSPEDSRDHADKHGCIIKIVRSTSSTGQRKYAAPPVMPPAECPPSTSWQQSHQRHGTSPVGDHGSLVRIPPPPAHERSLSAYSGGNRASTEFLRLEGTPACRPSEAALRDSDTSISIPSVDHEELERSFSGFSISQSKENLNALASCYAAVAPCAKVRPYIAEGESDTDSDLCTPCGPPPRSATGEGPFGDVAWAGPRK

[2] = target: Potassium voltage-gated channel subfamily KQT member 1 (Homo sapiens) (UniProt P51787); conditions: KCNQ channels in transfected CHO cells, manual whole-cell patch clamp current, at 10 µM
Potassium voltage-gated channel subfamily KQT member 1 (Homo sapiens), sequence (P51787 whole entry, looked up): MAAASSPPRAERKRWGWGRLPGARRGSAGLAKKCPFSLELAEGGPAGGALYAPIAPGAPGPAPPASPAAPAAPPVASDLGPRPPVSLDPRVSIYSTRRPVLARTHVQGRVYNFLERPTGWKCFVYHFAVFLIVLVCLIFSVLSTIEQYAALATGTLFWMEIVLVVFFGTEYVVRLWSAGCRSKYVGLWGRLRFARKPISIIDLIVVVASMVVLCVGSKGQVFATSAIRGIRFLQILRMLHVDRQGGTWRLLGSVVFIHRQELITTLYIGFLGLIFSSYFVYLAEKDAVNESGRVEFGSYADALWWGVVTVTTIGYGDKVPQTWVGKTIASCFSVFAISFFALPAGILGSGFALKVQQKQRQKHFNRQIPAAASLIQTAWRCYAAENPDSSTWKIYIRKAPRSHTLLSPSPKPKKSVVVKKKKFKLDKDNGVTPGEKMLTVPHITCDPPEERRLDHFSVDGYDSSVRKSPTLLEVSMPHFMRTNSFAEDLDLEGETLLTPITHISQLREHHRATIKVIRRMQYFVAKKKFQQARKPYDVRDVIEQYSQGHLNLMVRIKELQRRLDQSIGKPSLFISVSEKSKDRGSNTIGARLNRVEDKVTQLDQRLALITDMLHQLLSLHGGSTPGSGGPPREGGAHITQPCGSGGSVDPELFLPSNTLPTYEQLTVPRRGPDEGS

[3] = target: Potassium voltage-gated channel subfamily KQT member 3 (Rattus norvegicus) (UniProt O88944); conditions: KCNQ channels in transfected CHO cells, manual whole-cell patch clamp current; measured here: KCNQ3 current ratio; at 10 µM; stronger effect = higher value
Potassium voltage-gated channel subfamily KQT member 3 (Rattus norvegicus), sequence (O88944 whole entry, looked up): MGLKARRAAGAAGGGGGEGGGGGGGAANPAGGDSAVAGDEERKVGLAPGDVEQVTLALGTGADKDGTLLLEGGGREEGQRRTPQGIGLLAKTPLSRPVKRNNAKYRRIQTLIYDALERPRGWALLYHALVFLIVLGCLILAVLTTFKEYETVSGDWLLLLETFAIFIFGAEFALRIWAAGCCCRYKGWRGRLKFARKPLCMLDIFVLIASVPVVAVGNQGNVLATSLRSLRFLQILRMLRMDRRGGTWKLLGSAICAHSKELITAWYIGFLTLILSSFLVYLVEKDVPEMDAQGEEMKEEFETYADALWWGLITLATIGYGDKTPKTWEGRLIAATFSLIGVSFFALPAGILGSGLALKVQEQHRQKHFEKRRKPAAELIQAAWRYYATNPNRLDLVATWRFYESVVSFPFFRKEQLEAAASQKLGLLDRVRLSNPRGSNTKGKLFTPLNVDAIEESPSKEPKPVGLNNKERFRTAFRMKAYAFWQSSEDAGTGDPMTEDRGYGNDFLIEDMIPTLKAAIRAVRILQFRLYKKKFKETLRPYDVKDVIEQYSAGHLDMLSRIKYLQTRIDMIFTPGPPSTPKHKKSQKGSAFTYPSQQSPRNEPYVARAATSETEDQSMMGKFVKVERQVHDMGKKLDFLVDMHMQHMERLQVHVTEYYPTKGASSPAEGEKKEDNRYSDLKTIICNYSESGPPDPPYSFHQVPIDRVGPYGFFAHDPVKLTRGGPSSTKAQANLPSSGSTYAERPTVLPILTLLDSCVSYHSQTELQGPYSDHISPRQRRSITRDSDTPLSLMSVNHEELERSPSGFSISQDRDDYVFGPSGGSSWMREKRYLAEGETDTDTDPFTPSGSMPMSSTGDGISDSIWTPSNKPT

[4] = target: Potassium voltage-gated channel subfamily KQT member 5 (Homo sapiens) (UniProt Q9NR82); conditions: KCNQ channels in transfected CHO cells, manual whole-cell patch clamp current; measured here: KCNQ5 current ratio; at 10 µM; stronger effect = higher value
Potassium voltage-gated channel subfamily KQT member 5 (Homo sapiens), sequence (Q9NR82 whole entry, looked up): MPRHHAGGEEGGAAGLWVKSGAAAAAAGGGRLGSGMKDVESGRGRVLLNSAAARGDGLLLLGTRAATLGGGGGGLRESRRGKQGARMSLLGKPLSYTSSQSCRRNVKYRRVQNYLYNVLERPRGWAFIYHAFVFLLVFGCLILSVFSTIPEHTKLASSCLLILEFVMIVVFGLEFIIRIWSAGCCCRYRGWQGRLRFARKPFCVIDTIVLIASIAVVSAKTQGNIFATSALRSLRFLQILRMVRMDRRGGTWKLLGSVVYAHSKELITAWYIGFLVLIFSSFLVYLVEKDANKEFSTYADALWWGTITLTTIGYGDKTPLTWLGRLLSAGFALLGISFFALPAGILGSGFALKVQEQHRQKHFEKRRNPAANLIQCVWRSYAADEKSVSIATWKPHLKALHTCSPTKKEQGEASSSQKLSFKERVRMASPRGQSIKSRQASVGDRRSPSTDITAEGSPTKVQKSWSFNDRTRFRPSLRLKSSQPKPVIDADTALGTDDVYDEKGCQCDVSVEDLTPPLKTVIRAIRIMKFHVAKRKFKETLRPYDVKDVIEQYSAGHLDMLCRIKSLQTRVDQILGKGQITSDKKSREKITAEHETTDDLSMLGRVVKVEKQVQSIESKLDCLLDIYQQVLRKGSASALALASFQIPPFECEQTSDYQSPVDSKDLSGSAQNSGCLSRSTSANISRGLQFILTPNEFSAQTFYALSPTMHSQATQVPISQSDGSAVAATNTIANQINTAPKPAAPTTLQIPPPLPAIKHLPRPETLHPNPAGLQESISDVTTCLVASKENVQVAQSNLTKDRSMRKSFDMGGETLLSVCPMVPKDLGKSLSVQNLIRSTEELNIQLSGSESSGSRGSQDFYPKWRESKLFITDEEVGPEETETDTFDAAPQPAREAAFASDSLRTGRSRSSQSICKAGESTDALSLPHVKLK

[5] = target: Potassium voltage-gated channel subfamily KQT member 4 (Homo sapiens) (UniProt P56696); conditions: KCNQ channels in transfected CHO cells, manual whole-cell patch clamp current; measured here: KCNQ4 current ratio; at 10 µM; stronger effect = higher value
Potassium voltage-gated channel subfamily KQT member 4 (Homo sapiens), sequence (P56696 whole entry, looked up): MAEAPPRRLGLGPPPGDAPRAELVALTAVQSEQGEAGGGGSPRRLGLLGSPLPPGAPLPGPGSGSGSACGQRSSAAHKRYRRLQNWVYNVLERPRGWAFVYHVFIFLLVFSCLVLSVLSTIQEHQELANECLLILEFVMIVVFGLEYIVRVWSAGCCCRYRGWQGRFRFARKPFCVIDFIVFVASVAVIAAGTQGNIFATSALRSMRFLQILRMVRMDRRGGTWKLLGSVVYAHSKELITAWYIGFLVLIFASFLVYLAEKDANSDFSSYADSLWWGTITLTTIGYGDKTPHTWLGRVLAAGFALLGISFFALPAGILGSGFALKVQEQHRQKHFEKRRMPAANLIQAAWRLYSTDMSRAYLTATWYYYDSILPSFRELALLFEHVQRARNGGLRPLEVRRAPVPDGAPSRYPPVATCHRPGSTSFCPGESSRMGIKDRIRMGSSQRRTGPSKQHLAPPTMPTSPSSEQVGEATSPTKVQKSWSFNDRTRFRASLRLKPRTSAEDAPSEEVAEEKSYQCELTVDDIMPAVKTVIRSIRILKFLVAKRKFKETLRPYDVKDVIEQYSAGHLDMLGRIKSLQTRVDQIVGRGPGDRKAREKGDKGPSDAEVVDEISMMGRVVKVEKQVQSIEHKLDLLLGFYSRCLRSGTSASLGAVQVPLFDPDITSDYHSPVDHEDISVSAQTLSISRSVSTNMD

- current ratio I/I0 [1]: 1.9
- current ratio I/I0 ([2]; stronger effect = higher value): 0.9
- deactivation tau ([2]; measured here: KCNQ2 deactivation time constant, stronger effect = higher value): 51.8 ms
- V1/2 ([2]; measured here: KCNQ2 half activation voltage, stronger effect = lower value): -16.6 mV
- current ratio I/I0 [3]: 1
- current ratio I/I0 [4]: 3.5
- current ratio I/I0 [5]: 2.4
Compound: O=C(Nc1ccc(Cl)nc1)c1ccc(F)cc1
